Experiments:
NIH-3T3 세포 = test: Peptide stability: storage at 40℃ in 50 mM Tris-HCl (pH 8.0), remaining activity by MTT assay; format: physicochemical; conditions: 50 mM Tris-HCl pH 8.0, sampled at days 0-100, peptide 10 ㎍/ml, TGF-β1 1 ㎍/ml, Fig. 3
C57BL/6 마우스의 멜라노사이트 = test: Melanin production in melanocytes induced with α-MSH; format: cell-based, mouse; conditions: α-MSH 200 μg/ml; peptide 10 μg/ml; 3 days; Fig. 4
타이로시나아제 = test: Tyrosinase activity (L-DOPA, 405 nm) in lysate of B16F10 cells treated with α-MSH; format: cell-based, mouse; conditions: peptide 1 and 10 μg/ml, 4 days, versus α-MSH alone, Fig. 6
B16F10 세포 = test: Microscopic observation of melanosomes in B16F10 cells treated with α-MSH; format: cell-based, mouse; conditions: α-MSH 200 μg/ml; peptide 10 μg/ml; 4 days; Fig. 7
[1] = test system: TRP1(tyrosinase-related protein-1); test: RT-PCR of melanogenesis marker TRP1 in B16F10 cells treated with α-MSH; format: cell-based, mouse; conditions: α-MSH plus peptide 10 μg/ml; 4 days; Fig. 8
TRP2 = test: RT-PCR of melanogenesis marker TRP2 in B16F10 cells treated with α-MSH; format: cell-based, mouse; conditions: α-MSH plus peptide 10 μg/ml; 4 days; Fig. 8
[2] = test system: MITF(microphthalmia-associated transcription factor); test: RT-PCR of melanogenesis marker MITF in B16F10 cells treated with α-MSH; format: cell-based, mouse; conditions: α-MSH plus peptide 10 μg/ml; 4 days; Fig. 8
프로콜라겐 = test: Procollagen production in NIH3T3 fibroblasts (ELISA); format: cell-based; conditions: peptide 1 and 10 μg/ml, 72 h, Fig. 9
피브로넥틴 = test: Fibronectin production in NIH3T3 fibroblasts (ELISA); format: cell-based; conditions: peptide 1 and 10 μg/ml, 72 h, Fig. 10
HaCat 세포 = test: Cytotoxicity test, SRB colorimetry, HaCat cells; format: cell-based; conditions: 10 ng/ml to 100 μg/ml, 72 h, Fig. 11
NIH3T3 세포 = test: Cytotoxicity test, SRB colorimetry, NIH3T3 cells; format: cell-based; conditions: 10 ng/ml to 100 μg/ml, 72 h, Fig. 11
B16F10 세포주 = test: Cytotoxicity test, SRB colorimetry, B16F10 cells; format: cell-based; conditions: 10 ng/ml to 100 μg/ml, 72 h, Fig. 11

Substance | remaining activity over storage time (stability) (NIH-3T3 세포) | melanin production (visual) (C57BL/6 마우스의 멜라노사이트) | decrease of tyrosinase activity (타이로시나아제) [%] | melanosomes induced by α-MSH (microscopy) (B16F10 세포) | TRP1 expression (RT-PCR) [1] | TRP2 expression (RT-PCR) (TRP2) | MITF expression (RT-PCR) [2] | procollagen production (프로콜라겐) | fibronectin production (피브로넥틴) | cell number / cytotoxicity (HaCat 세포) | cell number / cytotoxicity (NIH3T3 세포) | cell number / cytotoxicity (B16F10 세포주)
NH2-Gly-Arg-Gly-Asp-Tyr-Leu-Arg-Ser-Ala-Asp-Thr-OH (H-GRGDYLRSADT-OH) [서열2 펩타이드] | 활성도가 오랫동안 지속됨 | α-MSH를 처리하지 않았을 때와 유사한 멜라닌 생성 | ≥ 30 | 사라지는 | 발현을 억제한다 | 발현을 억제한다 | 발현을 억제한다 | 우수한 프로콜라겐 생성 촉진능 | 우수한 피브로넥틴 생성 촉진능 | 세포 수의 감소는 전혀 관찰 되지 않았으며 | 세포 수의 감소는 전혀 관찰 되지 않았으며 | 세포 수의 감소는 전혀 관찰 되지 않았으며
재조합 TGF-β1: 대장균으로부터 생산된 재조합 TGF-β1(Sigma), control in the stability test | 활성도가 급격히 감소됨 |  |  |  |  |  |  |  |  |  |  | 

Reference: patent KR20090133069A, “형질전환 성장인자의 활성을 가지는 펩타이드 및 그의 용도” ((주)케어젠, priority 2009, dated 2009)
